According to patent US12018005B1, “Blarcamesine co-crystals for the manufacture of pharmaceutical dosage form” (EGIS GYÓGYSZERGYÁR ZRT., priority 2023, dated 2024):

How the values were obtained:
Assay type in all cases: physicochemical
[1] = crystal structure after wet grinding; conditions: subjected to wet grinding
[2] = solubility over the relevant pH range; conditions: entire relevant pH range
[3] = resistance to oxidative stress; conditions: compared with blarcamesine hydrochloric acid salt

Molecule	retention of crystal structure / polymorphic form after wet grinding [1]	solubility [2]	resistance to oxidative stress [3]
CN(C)CC1CCOC1(c1ccccc1)c1ccccc1.Cl (racemic) [hydrochloric acid salt, [(2,2-diphenyloxolan-3-yl)methyl]dimethylamine hydrochloride]	polymorphic form of the hydrochloride salt changes	extreme solubility	–
(S)-(−)-blarcamesine hydrochloride, (R)-(+)-blarcamesine hydrochloride, ZnCl2 (1:1:1) co-crystal [ZnCl2 co-crystal]	retains its crystal structure	–	more resistant to oxidative stress than the hydrochloric acid salt
